Reference: patent US20090062536A1, “USE OF SULFONANILIDE COMPOUNDS AS HERBICIDE” (Bayer CropScience AG, priority 2007, published 2009)

Experiments:
[1] = test system: transplanted rice; assay: Herbicidal damage on transplanted paddy rice, paddy field pot test; format: in vivo, Oryza sativa L. cultivar: Nihonbare; settings: 125 g ai/ha applied onto water surface 5 days after transplanting; rated 3 weeks after treatment; 100% complete withering, 0% no damage
Text: (§1) Test of herbicidal effect to weeds and damage on paddy rice in a paddy field: In a greenhouse, each three paddy rice seedlings (Oryza sativa L. cultivar: Nihonbare) were transplanted in each pot filled with paddy field soil. Each twenty forced sprouts of paddy rice (Oryza sativa L. cultivar: Nihonbare) were also inoculated in each pot. Then, any of seeds or tubers of Cyperus difformis L., Echinochloa crus-galli, Scirpus juncoides, SU-resistant Scirpus juncoides, annual broad leaf weeds (including Lindernia procumbens Philcox, Rotala indica Koehne, and Elatine triandra Schk), SU-resistant annual broad leaf weeds, Sagittaria pygmaea Miq, Cyperus serotinus Rottboel was inoculated in the pot and covered with water in about 2 to 3 cm depth. Five days after transplanting paddy rice, prescribed diluted solutions of formulations of the respective active compounds were applied onto the water surface. Each of the formulations was prepared as an emulsion by mixing 1 part by weight of active compound with 5 parts by weight of carrier and 1 part by weight of emulsifier (benzyloxy polyglycol ether). After the treatment, water depth of 3 cm was kept. A herbicidal effect and a herbicidal damage on paddy rice were investigated 3 weeks after the treatment. The herbicidal effect and the herbicidal damage on paddy rice were rated as 100% in the case of complete withering and 0% in the case of no herbicidal effect or no herbicidal damage.

[2] = test system: directley seeded rice; assay: Herbicidal damage on directly seeded paddy rice, paddy field pot test; format: in vivo, Oryza sativa L. cultivar: Nihonbare; settings: 125 g ai/ha applied onto water surface; rated 3 weeks after treatment; 100% complete withering, 0% no damage
Text: as §1

[3] = test system: Cyperus serotinus; assay: Herbicidal effect to weeds in a paddy field, pot test; format: in vivo, Cyperus serotinus Rottboel; settings: 125 g ai/ha applied onto water surface; rated 3 weeks after treatment; 100% complete withering, 0% no effect
Text: as §1

[4] = test system: Sagittaria pygmaea; assay: as above; format: in vivo, Sagittaria pygmaea Miq; settings: 125 g ai/ha applied onto water surface; rated 3 weeks after treatment; 100% complete withering, 0% no effect
Text: as §1

[5] = test system: Echinochloa crus-galli; assay: as above; format: in vivo; settings: 125 g ai/ha applied onto water surface; rated 3 weeks after treatment; 100% complete withering, 0% no effect
Text: as §1

[6] = test system: SU-resistant Scirpus juncoides; assay: as above; format: in vivo; settings: 125 g ai/ha applied onto water surface; rated 3 weeks after treatment; 100% complete withering, 0% no effect
Text: as §1

[7] = test system: SU-resistant annual broad leaf weeds; assay: as above; format: in vivo; settings: 125 g ai/ha applied onto water surface; rated 3 weeks after treatment; 100% complete withering, 0% no effect
Text: as §1

[8] = test system: Scirpus juncoides; assay: as above; format: in vivo; settings: 125 g ai/ha applied onto water surface; rated 3 weeks after treatment; 100% complete withering, 0% no effect
Text: as §1

[9] = test system: annual broad leaf weeds; assay: as above; format: in vivo; settings: 125 g ai/ha applied onto water surface; rated 3 weeks after treatment; 100% complete withering, 0% no effect
Text: as §1

SMILES: COc1nc(OC)nc(C(=O)c2cccc(Br)c2N(C)S(=O)(=O)C(F)F)n1 [Compound 10, N-{2-bromo-6-[(4,6-dimethoxy-1,3,5-triazin-2-yl)carbonyl]phenyl}-N-methyl-1,1-difluoromethanesulfonamide]
- herbicidal damage on transplanted rice [1]: 10%
- herbicidal damage on directley seeded rice [2]: 30%
- herbicidal effect Cyperus serotinus [3]: 100%
- herbicidal effect Sagittaria pygmaea [4]: 100%
- herbicidal effect Echinochloa crus-galli [5]: 100%
- herbicidal effect SU-resistant Scirpus juncoides [6]: 90%
- herbicidal effect SU-resistant annual broad leaf weeds [7]: 100%
- herbicidal effect Scirpus juncoides [8]: 100%
- herbicidal effect annual broad leaf weeds [9]: 90%

SMILES: COc1cc(OC)nc(C(O)c2cccc(Br)c2NS(=O)(=O)CC(F)(F)F)n1 (centres unmarked) [Compound 1, 2-bromo-6-[(4,6-dimethoxypyrimidin-2-yl)(hydroxy)methyl]-N-2,2,2-trifluoroethanesulfonanilide]
- herbicidal damage on transplanted rice [1]: 0%
- herbicidal damage on directley seeded rice [2]: 10%
- herbicidal effect Cyperus serotinus [3]: 100%
- herbicidal effect Sagittaria pygmaea [4]: 100%
- herbicidal effect Echinochloa crus-galli [5]: 100%
- herbicidal effect SU-resistant Scirpus juncoides [6]: 100%
- herbicidal effect SU-resistant annual broad leaf weeds [7]: 100%
- herbicidal effect Scirpus juncoides [8]: 100%
- herbicidal effect annual broad leaf weeds [9]: 100%

SMILES: COc1cc(OC)nc(C(SC)c2cccc(Br)c2NS(=O)(=O)CC(F)(F)F)n1 (centres unmarked) [Compound 4, 2-bromo-6-[(4,6-dimethoxypyrimidin-2-yl)methylthiomethyl]-N-2,2,2-trifluoroethanesulfonanilide]
- herbicidal damage on transplanted rice [1]: 0%
- herbicidal damage on directley seeded rice [2]: 10%
- herbicidal effect Cyperus serotinus [3]: 100%
- herbicidal effect Sagittaria pygmaea [4]: 100%
- herbicidal effect Echinochloa crus-galli [5]: 100%
- herbicidal effect SU-resistant Scirpus juncoides [6]: 90%
- herbicidal effect SU-resistant annual broad leaf weeds [7]: 100%
- herbicidal effect Scirpus juncoides [8]: 100%
- herbicidal effect annual broad leaf weeds [9]: 100%

SMILES: COc1cc(OC)nc(C(=O)c2cccc(Br)c2NS(=O)(=O)CC(F)(F)F)n1 [Compound 2, 2-bromo-6-[(4,6-dimethoxypyrimidin-2-yl)carbonyl]-N-2,2,2-trifluoroethanesulfonanilide]
- herbicidal damage on transplanted rice [1]: 10%
- herbicidal damage on directley seeded rice [2]: 20%
- herbicidal effect Cyperus serotinus [3]: 100%
- herbicidal effect Sagittaria pygmaea [4]: 100%
- herbicidal effect Echinochloa crus-galli [5]: 100%
- herbicidal effect SU-resistant Scirpus juncoides [6]: 100%
- herbicidal effect SU-resistant annual broad leaf weeds [7]: 100%
- herbicidal effect Scirpus juncoides [8]: 100%
- herbicidal effect annual broad leaf weeds [9]: 100%

SMILES: COc1cc(OC)nc(C(O)c2cccc(I)c2NS(=O)(=O)CC(F)(F)F)n1 (centres unmarked) [Compound 5, 2-iodo-6-[(4,6-dimethoxypyrimidin-2-yl)(hydroxy)methyl]-N-2,2,2-trifluoroethanesulfonanilide]
- herbicidal damage on transplanted rice [1]: 20%
- herbicidal damage on directley seeded rice [2]: 30%
- herbicidal effect Cyperus serotinus [3]: 100%
- herbicidal effect Sagittaria pygmaea [4]: 100%
- herbicidal effect Echinochloa crus-galli [5]: 100%
- herbicidal effect SU-resistant Scirpus juncoides [6]: 90%
- herbicidal effect SU-resistant annual broad leaf weeds [7]: 100%
- herbicidal effect Scirpus juncoides [8]: 100%
- herbicidal effect annual broad leaf weeds [9]: 100%

SMILES: COc1cc(OC)nc(C(SC)c2cccc(I)c2NS(=O)(=O)CC(F)(F)F)n1 (centres unmarked) [Compound 8, 2-iodo-6-[(4,6-dimethoxypyrimidin-2-yl)(methylthio)methyl]-N-2,2,2-trifluoroethanesulfonanilide]
- herbicidal damage on transplanted rice [1]: 0%
- herbicidal damage on directley seeded rice [2]: 10%
- herbicidal effect Cyperus serotinus [3]: 100%
- herbicidal effect Sagittaria pygmaea [4]: 100%
- herbicidal effect Echinochloa crus-galli [5]: 100%
- herbicidal effect SU-resistant Scirpus juncoides [6]: 90%
- herbicidal effect SU-resistant annual broad leaf weeds [7]: 100%
- herbicidal effect Scirpus juncoides [8]: 100%
- herbicidal effect annual broad leaf weeds [9]: 100%

SMILES: COc1cc(Cl)nc(C(=O)c2cccc(Cl)c2N(C)S(=O)(=O)C(F)F)n1 [Compound 51, N-{2-chloro-6-[(4-chloro-6-methoxypyrimidin-2-yl)carbonyl]phenyl}-N-methyl-1,1-difluoromethanesulfonamide]
- herbicidal damage on transplanted rice [1]: 10%
- herbicidal damage on directley seeded rice [2]: 30%
- herbicidal effect Cyperus serotinus [3]: 100%
- herbicidal effect Sagittaria pygmaea [4]: 100%
- herbicidal effect Echinochloa crus-galli [5]: 100%
- herbicidal effect SU-resistant Scirpus juncoides [6]: 90%
- herbicidal effect Scirpus juncoides [8]: 100%
- herbicidal effect annual broad leaf weeds [9]: 90%
